The record followed here is publication PMC4890260, “Engineering Bacillus licheniformis for the production of meso-2,3-butanediol” (Biotechnology for Biofuels, 2016).

Assay [1] concerns the target T1, WX-02 GDH (Bacillus licheniformis, UniProt X5FDW5).
T1 construct: primers encode native N-term MSKSVK (MG added before) and C-term AESYHD
T1 sequence (X5FDW5 1-367): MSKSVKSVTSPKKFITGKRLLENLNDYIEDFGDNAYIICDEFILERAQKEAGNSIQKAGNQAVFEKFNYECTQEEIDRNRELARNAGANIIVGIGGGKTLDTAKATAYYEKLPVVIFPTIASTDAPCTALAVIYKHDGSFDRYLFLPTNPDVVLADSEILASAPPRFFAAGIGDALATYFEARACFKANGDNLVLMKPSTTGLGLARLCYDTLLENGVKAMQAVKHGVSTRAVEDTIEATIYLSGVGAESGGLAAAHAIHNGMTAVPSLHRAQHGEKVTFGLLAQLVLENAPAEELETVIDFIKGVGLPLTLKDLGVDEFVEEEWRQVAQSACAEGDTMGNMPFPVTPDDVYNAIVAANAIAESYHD
The experiment in a line: NADH formation at […] nm. The assay is classed as biochemical. The note with it: 4 mM NAD+; 50 mM substrate; Z buffer pH 7.0; 37 °C; 1 mM MgSO4, 10 mM DTT.

For assay [2], the target named is T1, WX-02 GDH. Kind of assay: NADH oxidation at […] nm. The assay is classed as biochemical. The note with it: 0.2 mM NADH; 50 mM substrate; Z buffer pH 7.0; 37 °C; 1 mM MgSO4, 10 mM DTT.

Turning to `C[C@@H](O)[C@@H](C)O` [D-2,3-BD], the “NADH formation at 340 nm” value at WX-02 GDH [1] is on record as “this enzyme exhibited the highest activity towards D-2,3-BD among various substrates”. Turning to `CC(=O)[C@@H](C)O` [D-AC], the “NADH oxidation at 340 nm” value on WX-02 GDH [2] is “WX-02 GDH accepted D-AC, D-2,3-BD, meso-2,3-BD, and glycerol as substrates”.
